Assay results from patent US5238921A, “Oligopeptide, angiotensin converting enzyme inhibitors, hypotensive agent, and method for treatment of hypertension” (Agency of Industrial Science and Technology, priority 1990, dated 1993).
Non-standard residues stand in square brackets, D forms with d. Residues, ends and D or L forms follow the SMILES beside them.

System: spontaneous hypertensive rats (SHR)
Assay: Hypotensive activity in spontaneous hypertensive rats (Tail-Cuff method)
Assay type: in vivo, rat
Conditions: 120 mg/kg intraperitoneally, maximum blood pressure before minus after administration ± S.E., p < 0.01 against saline control
Experimental: 10-week old spontaneous hypertensive rats (SHR) (produced BY Nihon Rat Co., Ltd.,.male., weight 240 to 280 g, 4 to 6 animals per 1 group) were used as test animals. L-Leu-L-Arg-L-Pro obtained as in Example 12 was dissolved in physiological saline and 120 mg in terms of the effective ingredient of the solution was intraperitoneally administered per kg of animal. As control physiological saline was intraperitoneally administered. Blood pressure was measured before the administration and at regular intervals of time after the administration by the Tail-Cuff method using a bloodless sphygmomanometer for rats and mice TK-350 (produced by Unicom Co., Ltd.)
The results were shown in Table 2 by (Maximum blood pressure value before the administration-Maximum blood pressure value after the administration) ± S.E.

Structure (SMILES) | Lowering of blood pressure (mm Hg) 5 hours later [mm Hg]
CC(C)C[C@H](N)C(=O)N[C@@H](CCCNC(=N)N)C(=O)N1CCC[C@H]1C(=O)O [L--Leu--L--Arg--L--Pro, L-Leu-L-Arg-L-Pro] (H-Leu-Arg-Pro-OH) | 14 ± 5

Biological target: T1, angiotensin converting enzyme (Oryctolagus cuniculus, UniProt P12822)
T1 construct: the supernatant was further purified with hydroxyapatite to obtain an angiotensin converting enzyme solution; from tissue; host or cells: rabbit lung (acetone powder)
T1 sequence (P12822 34-1310): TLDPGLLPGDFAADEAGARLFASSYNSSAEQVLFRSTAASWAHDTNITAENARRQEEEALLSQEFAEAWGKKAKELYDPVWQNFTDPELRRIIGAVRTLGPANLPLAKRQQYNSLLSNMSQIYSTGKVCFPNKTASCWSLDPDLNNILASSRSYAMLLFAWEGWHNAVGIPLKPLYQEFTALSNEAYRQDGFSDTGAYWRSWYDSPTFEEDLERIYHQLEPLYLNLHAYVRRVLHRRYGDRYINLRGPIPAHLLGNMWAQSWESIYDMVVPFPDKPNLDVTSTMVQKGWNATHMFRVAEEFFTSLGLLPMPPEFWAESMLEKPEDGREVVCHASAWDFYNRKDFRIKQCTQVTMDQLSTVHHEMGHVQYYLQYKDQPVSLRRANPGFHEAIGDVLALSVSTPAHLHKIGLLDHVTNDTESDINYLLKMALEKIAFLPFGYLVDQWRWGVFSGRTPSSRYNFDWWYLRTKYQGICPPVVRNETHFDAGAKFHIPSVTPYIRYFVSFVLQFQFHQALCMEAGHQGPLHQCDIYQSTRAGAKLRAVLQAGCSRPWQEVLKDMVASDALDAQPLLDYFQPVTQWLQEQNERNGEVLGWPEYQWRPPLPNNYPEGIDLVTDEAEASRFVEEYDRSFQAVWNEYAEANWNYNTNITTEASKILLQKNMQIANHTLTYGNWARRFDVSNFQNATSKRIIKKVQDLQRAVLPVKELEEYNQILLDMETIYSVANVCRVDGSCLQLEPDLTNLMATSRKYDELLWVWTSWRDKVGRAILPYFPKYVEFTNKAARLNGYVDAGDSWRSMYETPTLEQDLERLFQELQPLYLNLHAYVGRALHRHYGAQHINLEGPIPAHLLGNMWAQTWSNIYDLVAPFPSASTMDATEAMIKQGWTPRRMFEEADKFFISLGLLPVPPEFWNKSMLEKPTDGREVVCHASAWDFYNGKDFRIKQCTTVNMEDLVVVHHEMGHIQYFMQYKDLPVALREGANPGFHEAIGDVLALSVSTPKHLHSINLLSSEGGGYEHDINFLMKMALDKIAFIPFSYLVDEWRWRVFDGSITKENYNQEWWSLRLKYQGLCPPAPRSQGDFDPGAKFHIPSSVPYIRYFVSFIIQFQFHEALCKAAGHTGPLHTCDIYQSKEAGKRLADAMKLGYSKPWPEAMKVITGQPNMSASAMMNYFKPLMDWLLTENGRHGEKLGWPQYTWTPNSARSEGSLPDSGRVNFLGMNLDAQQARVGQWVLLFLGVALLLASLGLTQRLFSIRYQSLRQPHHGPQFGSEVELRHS
Assay: ACE inhibition activity (hippuroylhistidylleucine substrate, hippuric acid absorbance at 228 nm)
Assay type: biochemical, rabbit
Conditions: concentration at which the inhibition rate (E2) was found; not 50%
Experimental: The ACE inhibition activity of the thus obtained present oligopeptides was measured as follows. Namely, first, 5 g of rabbit lung acetone powder was dissolved in 50 ml of 0.1M sodium borate buffer (pH 8.3), the solution was centrifuged under the conditions of 40,000 G for 40 minutes, and the supernatant was further purified with hydroxyapatite to obtain an angiotensin converting enzyme solution having an enzyme activity of 1 unit/mg protein.
0.03 ml portions of aqueous solutions containing in various concentrations any one of the present oligopeptides was placed in test tubes, 0.25 ml portions of hippuroylhistidylleucine (final concentration 5 mM; containing 300 mM NaCl) were added thereto, 0.1 ml portions of the above angiotensin converting enzyme solution were added, and reactions were carried out at 37° C. for 30 minutes.
Plural of such an experiment were conducted and the inhibition rate was calculated by the following equation: [formula]

Structure (SMILES) | Concentration giving the inhibition rate [µM]
CC(C)C[C@H](N)C(=O)N[C@H](C(=O)N1CCC[C@H]1C(=O)O)[C@@H](C)O [L--Leu--L--Thr--L--Pro, L-Leu-L-Thr-L-Pro] (H-Leu-Thr-Pro-OH) | 3.4
CC(C)C[C@H](N)C(=O)NCC(=O)N1CCC[C@H]1C(=O)O [L--Leu--Gly--L--Pro, L-Leu-Gly-L-Pro] (H-Leu-Gly-Pro-OH) | 60
CC(C)C[C@H](N)C(=O)N[C@@H](Cc1ccc(O)cc1)C(=O)N1CCC[C@H]1C(=O)O [L--Leu--L--Tyr--L--Pro, L-Leu-L-Tyr-L-Pro] (H-Leu-Tyr-Pro-OH) | 12

Next, values leading:

Concentration giving the inhibition rate [µM] | Structure (SMILES)
182 | CC(C)C[C@H](N)C(=O)N[C@@H](CC(=O)O)C(=O)N1CCC[C@H]1C(=O)O [L--Leu--L--Asp--L--Pro, L-Leu-L-Asp-L-Pro] (H-Leu-Asp-Pro-OH)
24 | CC(C)C[C@H](N)C(=O)N[C@@H](CCC(=O)O)C(=O)N1CCC[C@H]1C(=O)O [L--Leu--L--Glu--L--Pro, L-Leu-L-Glu-L-Pro] (H-Leu-Glu-Pro-OH)
45 | CC(C)C[C@@H](N)C(=O)N[C@@H](CCCNC(=N)N)C(=O)N1CCC[C@H]1C(=O)O [D--Leu--L--Arg--L--Pro, D-Leu-L-Arg-L-Pro] (H-[dL]-Arg-Pro-OH)

Same assay, conditions: line prints 50% inhibition rate instead of the word IC50; read-out: Concentration giving the inhibition rate (50%)

IC50 [µM] | Structure (SMILES)
0.6 | CC(C)C[C@H](N)C(=O)N[C@@H](CCCCN)C(=O)N1CCC[C@H]1C(=O)O [L--Leu--L--Lys--L--Pro, L-Leu-L-Lys-L-Pro] (H-Leu-Lys-Pro-OH)
80 | CC(C)C[C@H](N)C(=O)N[C@@H](Cc1c[nH]cn1)C(=O)N1CCC[C@H]1C(=O)O [L--Leu--L--His--L--Pro, L-Leu-L-His-L-Pro] (H-Leu-His-Pro-OH)
1.4 | CC(C)C[C@H](N)C(=O)N[C@@H](C)C(=O)N1CCC[C@H]1C(=O)O [L--Leu--L--Ala--L--Pro, L-Leu-L-Ala-L-Pro] (H-Leu-Ala-Pro-OH)

Same assay, conditions: rabbit lung ACE, 5 mM hippuroylhistidylleucine, 37° C. 30 minutes; read-out: IC50

Structure (SMILES) | IC50 [µM]
CC(C)C[C@H](N)C(=O)N[C@@H](CCC(N)=O)C(=O)N[C@@H](CCC(N)=O)C(=O)O [L--Leu--L--Gln--L--Gln, L-Leu-L-Gln-L-Gln] (H-Leu-Gln-Gln-OH) | 100
CC(C)C[C@H](NC(=O)[C@@H](N)Cc1ccccc1)C(=O)N1CCC[C@H]1C(=O)O [L--Phe--L--Leu--L--Pro, L-Phe-L-Leu-L-Pro] (H-Phe-Leu-Pro-OH) | 210
CC[C@H](C)[C@H](N)C(=O)N[C@@H](CCCNC(=N)N)C(=O)N[C@@H](C)C(=O)N[C@@H](CCC(N)=O)C(=O)N[C@@H](CCC(N)=O)C(=O)O [L--Ile--Arg--L--Ala--L--Gln--L--Gln, L-Ile-L-Arg-L-Ala-L-Gln-L-Gln] (H-IRAQQ-OH) | 160
CC(C)[C@H](N)C(=O)N[C@@H](C)C(=O)N[C@@H](Cc1ccc(O)cc1)C(=O)O [L--Val--L--Ala--L--Tyr, L-Val-L-Ala-L-Tyr] (H-Val-Ala-Tyr-OH) | 16
N[C@@H](Cc1ccccc1)C(=O)N[C@@H](Cc1ccc(O)cc1)C(=O)O [L--Phe--L--Tyr, L-Phe-L-Tyr] (H-Phe-Tyr-OH) | 25
CC(C)C[C@H](N)C(=O)N[C@@H](C)C(=O)N[C@@H](C)C(=O)O [L--Leu--L--Ala--L--Ala, L-Leu-L-Ala-L-Ala] (H-Leu-Ala-Ala-OH) | 13
CC[C@H](C)[C@H](N)C(=O)N[C@@H](CCCNC(=N)N)C(=O)N[C@@H](C)C(=O)O [L--Ile--L--Arg--L--Ala, L-Ile-L-Arg-L-Ala] (H-Ile-Arg-Ala-OH) | 6.4
CC(C)[C@H](N)C(=O)N[C@@H](CO)C(=O)N1CCC[C@H]1C(=O)O [L--Val--L--Ser--Ser--L--Pro, L-Val-L-Ser-L-Pro] (H-Val-Ser-Pro-OH; N-terminus and C-terminus assumed) | 10
CC(C)[C@H](N)C(=O)N[C@@H](C)C(=O)N[C@@H](C)C(=O)O [L--Val--L--Ala--L--Ala, L-Val-L-Ala-L-Ala] (H-Val-Ala-Ala-OH) | 13

Second part, the compound after the results:

IC50 [µM] | Structure (SMILES)
0.27 | CC(C)C[C@H](N)C(=O)N[C@@H](CCCN=C(N)N)C(=O)N1CCC[C@H]1C(=O)O [L--Leu--L--Arg--L--Pro, L-Leu-L-Arg-L-Pro] (H-Leu-Arg-Pro-OH)
1.7 | CC(C)C[C@H](N)C(=O)N[C@@H](CO)C(=O)N1CCC[C@H]1C(=O)O [L--Leu--L--Ser--L--Pro, L-Leu-L-Ser-L-Pro] (H-Leu-Ser-Pro-OH)
35 | CC(C)C[C@H](N)C(=O)N[C@@H](CC(N)=O)C(=O)N1CCC[C@H]1C(=O)O [L--Leu--L--Asn--L--Pro, L-Leu-L-Asn-L-Pro] (H-Leu-Asn-Pro-OH)
57 | CC(C)C[C@H](NC(=O)[C@@H](N)CC(C)C)C(=O)N1CCC[C@H]1C(=O)O [L--Leu--L--Leu--L--Pro, L-Leu-L-Leu-L-Pro] (H-Leu-Leu-Pro-OH)
1.9 | CC(C)C[C@H](N)C(=O)N[C@@H](CCC(N)=O)C(=O)N1CCC[C@H]1C(=O)O [L--Leu--L--Gln--L-- Pro, L-Leu-L-Gln-L-Pro] (H-Leu-Gln-Pro-OH)
